Patent US8846703B2, “Crystal of a free tricyclic pyrazolopyrimidine derivative” (Daiichi Sankyo Company, Limited, priority 2010, dated 2014)

What was measured:
[1] = test system: human breast cancer cell line SK-BR-3; experiment: Cell growth inhibition assay (MTT), SK-BR-3; assay type: cell-based; conditions: SK-BR-3 cells, 72 hours, read-out: GI50 value (50% growth inhibitory concentration)
Description: (§1) A cell growth inhibition assay was performed using two types of cells (human breast cancer cell line SK-BR-3 and human lung cancer cell line NCI-H460).
(§2) Cells of each type were suspended in a medium and seeded into a 96-well multi-well plate at 2000 cells/150 μL/well in the case of SK-BR-3 and at 500 cells/150 μL/well in the case of NCI-H460. Compound (I) was dissolved in DMSO, and this was diluted with medium to prepare a sample solution (DMSO concentration: 0.5% or less). On the day following the seeding, 50 μL of DMSO-containing medium to which the test compound was not added (hereinafter called DMSO diluted solution; DMSO concentration: 0.5% or less) or 50 μL of the sample solution was further added to the cells. An MTT assay was performed immediately after and 72 hours after adding the sample solution or the DMSO diluted solution to the cells. The MTT assay was performed as follows.
(§3) 5 mg/mL of an MTT (3-(4,5-dimethylthiazol-2-yl)-2,5-diphenyltetrazolium bromide) solution was added at 20 μL per well. Thereafter, the plate was incubated at 37° C. in 5% CO2 for four hours. The plate was centrifuged at 1200 rpm for five minutes, and then the culture supernatant was removed by suction using a dispenser. DMSO was added at 150 μL per well, and the generated formazan was dissolved. […] The absorbance of each well was measured using a plate reader at an OD of 540 nm with a reference of 660 nm. […]

[2] = test system: human lung cancer cell line NCI-H460; experiment: Cell growth inhibition assay (MTT), NCI-H460; assay type: cell-based; conditions: NCI-H460 cells, 72 hours, read-out: GI50 value (50% growth inhibitory concentration)
Description: as §1, §2, §3

CNC(=O)CC1=Cc2nn(Cc3ncc(C)c(OC)c3Cl)c3nc(N)nc(c23)SC1 [Compound (1), 2-{4-amino-2-[(3-chloro-4-methoxy-5-methylpyridin-2-yl)methyl]-2,7-dihydro-6-thia-1,2,3,5-tetraazabenzo[cd]azulen-8-yl}-N-methylacetamide]
GI50 [1]: 13 nM | GI50 [2]: 26 nM
